# Laboratory results: paper PMC6273168, “Synthesis and Biological Evaluation of Novel 4-Morpholino-7,8-dihydro-5H-thiopyrano[4,3-d]pyrimidine Derivatives Bearing Phenylpyridine/ Phenylpyrimidine-Carboxamides” (Molecules, 2016)
# What was measured:
# [1] = test system: A549 (human lung cancer) cell line; test: MTT cell proliferation (cytotoxicity) assay, A549; type: cell-based; conditions: average of two separate determinations
# Procedure: (§1) Taking GDC-0941 as reference compound, the target compounds […], 12a–j, 13a–g and 14a–g ere evaluated for the cytotoxicity against the three cancer cell lines A549, PC-3 and MCF-7 usg 3-(4,5-dimethylthiazolyl-2)-2,5-diphenyltetrazolium bromide (MTT) cell proliferation assays. In addition, one selected compounds 12h was fher evaluated for PI3Kα kinase inhibitory activity. The results, expressed as IC50 values or inhibitory rate, are sumrized in Table 1, Table 2 and Table 3.
# (§2) The in vitro cytotoxic activities of all the compounds 11a–11j, 12a–12j, 13a–13g and 14a–14g was evaluated with A549, PC-3 and MCF-7 cell lines by the standard MTT assay, with GDC-0941 as positive control. The cancer cell lines were cultured in minimum essential medium (MEM) supplement with 10% fetal bovine serum (FBS). Approximately 4 × 10^3 cells, suspended in MEM medium, were plated onto each well of a 96-well plate and incubated in 5% CO2 at 37 °C for 24 h. The test compounds at indicated final concentrations were added to the culture medium and the cell cultures were continued for 72 h. Fresh MTT was added to each well at a terminal concentration of […] and incubated with cells at 37 °C for 4 h. The formazan crystals were dissolved in 100 µL DMSO each well, and the absorbency at 492 nm (for absorbance of MTT formazan) and 630 nm (for the reference wavelength) was measured with an ELISA reader. All of the compounds were tested three times in each of the cell lines. The results expressed as inhibition rates or IC50 (half-maximal inhibitory concentration) were the averages of two determinations and calculated by using the Bacus Laboratories Inc. Slide Scanner (Bliss) software (the Bacus Laboratories Inc. Slide Scanner (BLISS) system, Lombard, IL, USA).
# [2] = test system: PC-3 (human prostatic cancer) cell line; test: MTT cell proliferation (cytotoxicity) assay, PC-3; type: cell-based; conditions: 72 h, average of two separate determinations
# Procedure: as §1, §2
# [3] = test system: MCF-7 (human breast cancer) cell line; test: MTT cell proliferation (cytotoxicity) assay, MCF-7; type: cell-based; conditions: average of two separate determinations
# Procedure: as §1, §2
# [4] = Homo sapiens, A549, 72 h, Table 1
# [5] = Homo sapiens, MCF7, 72 h, Table 1
# [6] = Homo sapiens, A549, 72 h, Table 2
# [7] = Homo sapiens, MCF7, 72 h, Table 2
compound,measurement,setting,value
"O=C(Nc1ccc(-c2nc3c(c(N4CCOCC4)n2)CSCC3)cc1)c1cc(-c2cccc(F)c2)ccn1 [Compound 11b, N-(4-(4-Morpholino-7,8-dihydro-5H-thiopyrano[4,3-d]pyrimidin-2-yl)phenyl)-4-(3-fluorophenyl)pyridine amide]",IC50,[1]; [4],48.08 ± 0.13 µM
same,melting point,,236.5 to 238.4 °C
same,IC50,"[2]; Homo sapiens, Table 1",60.3 ± 1.24 µM
same,IC50,[3]; [5],51.7 ± 1.56 µM
"O=C(Nc1ccc(-c2nc3c(c(N4CCOCC4)n2)CSCC3)cc1)c1cc(-c2ccc(F)cc2F)ccn1 [Compound 11c, N-(4-(4-Morpholino-7,8-dihydro-5H-thiopyrano[4,3-d]pyrimidin-2-yl)phenyl)-4-(2,4-difluorophenyl) picolinamide]",melting point,,235 to 236.7 °C
"O=C(Nc1ccc(-c2nc3c(c(N4CCOCC4)n2)CSCC3)cc1)c1cc(-c2ccc(C(F)(F)F)cc2)ccn1 [Compound 11d, N-(4-(4-Morpholino-7,8-dihydro-5H-thiopyrano[4,3-d]pyrimidin-2-yl)phenyl)-4-(4-trifluoromethylphenyl) picolinamide]",IC50,[1]; [4],43.46 ± 0.12 µM
same,melting point,,229.3 to 231.7 °C
same,IC50,[3]; [5],50.3 ± 2.18 µM
"O=C(Nc1ccc(-c2nc3c(c(N4CCOCC4)n2)CSCC3)cc1)c1cc(-c2ccc(Cl)cc2)ccn1 [Compound 11e, N-(4-(4-Morpholino-7,8-dihydro-5H-thiopyrano[4,3-d]pyrimidin-2-yl)phenyl)-4-(4-chlorophenyl)pyridine amide]",IC50,[1]; [4],19.3 ± 0.86 µM
same,melting point,,235.3 to 236.2 °C
same,IC50,"[2]; Homo sapiens, Table 1",23.2 ± 0.76 µM
same,IC50,[3]; [5],20.9 ± 1.02 µM
"O=C(Nc1ccc(-c2nc3c(c(N4CCOCC4)n2)CSCC3)cc1)c1cc(-c2ccc(F)cc2)ccn1 [Compound 11f, N-(4-(4-Morpholino-7,8-dihydro-5H-thiopyrano[4,3-d]pyrimidin-2-yl)phenyl)-4-(4-fluorophenyl)pyridine amide]",melting point,,248.1 to 249.6 °C
"Cc1ccc(-c2ccnc(C(=O)Nc3ccc(-c4nc5c(c(N6CCOCC6)n4)CSCC5)cc3)c2)cc1 [Compound 11g, N-(4-(4-Morpholino-7,8-dihydro-5H-thiopyrano[4,3-d]pyrimidin-2-yl)phenyl)-4-(4-methylphenyl) picolinamide]",melting point,,275 to 276.8 °C
"CCc1ccc(-c2ccnc(C(=O)Nc3ccc(-c4nc5c(c(N6CCOCC6)n4)CSCC5)cc3)c2)cc1 [Compound 11h, N-(4-(4-Morpholino-7,8-dihydro-5H-thiopyrano[4,3-d]pyrimidin-2-yl)phenyl)-4-(4-ethylphenyl) picolinamide]",melting point,,229.8 to 232.1 °C
"COc1ccc(-c2ccnc(C(=O)Nc3ccc(-c4nc5c(c(N6CCOCC6)n4)CSCC5)cc3)c2)cc1 [Compound 11i, N-(4-(4-Morpholino-7,8-dihydro-5H-thiopyrano[4,3-d]pyrimidin-2-yl)phenyl)-4-(4methoxyphenyl) pyridine-carboxamide]",IC50,[1]; [4],27.68 ± 0.1 µM
same,melting point,,233.6 to 235.1 °C
same,IC50,"[2]; Homo sapiens, Table 1",65.66 ± 0.61 µM
same,IC50,[3]; [5],32.4 ± 1.84 µM
"O=C(Nc1ccc(-c2nc3c(c(N4CCOCC4)n2)CS(=O)(=O)CC3)cc1)c1cc(-c2ccccc2)ccn1 [Compound 12a, N-(4-(4-Morpholino-7,8-dihydro-6,6-dioxide-5H-thiopyrano[4,3-d]pyrimidin-2-yl)phenyl)-4-phenylpyridine Amide]",melting point,,229 to 233.8 °C
same,IC50,"[2]; Homo sapiens, Table 1",74.27 ± 0.08 µM
"O=C(Nc1ccc(-c2nc3c(c(N4CCOCC4)n2)CS(=O)(=O)CC3)cc1)c1cc(-c2cccc(F)c2)ccn1 [Compound 12b, N-(4-(4-Morpholino-7,8-dihydro-6,6-dioxide-5H-thiopyrano[4,3-d]pyrimidin-2-yl)phenyl)-4-(3-fluoro-phenyl) pyridinecarboxamide]",melting point,,281.5 to 283.8 °C
"O=C(Nc1ccc(-c2nc3c(c(N4CCOCC4)n2)CS(=O)(=O)CC3)cc1)c1cc(-c2ccc(F)cc2F)ccn1 [Compound 12c, N-(4-(4-Morpholino-7,8-dihydro-6,6-dioxide-5H-thiopyrano[4,3-d]pyrimidin-2-yl)phenyl)-4-(2,4-difluorophenyl) picolinamide]",melting point,,269 to 272.6 °C
"O=C(Nc1ccc(-c2nc3c(c(N4CCOCC4)n2)CS(=O)(=O)CC3)cc1)c1cc(-c2ccc(C(F)(F)F)cc2)ccn1 [Compound 12d, N-(4-(4-Morpholino-7,8-dihydro-6,6-dioxide-5H-thiopyrano[4,3-d]pyrimidin-2-yl)phenyl)-4-(4-trifluoro-methylphenyl) pyridinecarboxamide]",melting point,,> 300 °C
"O=C(Nc1ccc(-c2nc3c(c(N4CCOCC4)n2)CS(=O)(=O)CC3)cc1)c1cc(-c2ccc(Cl)cc2)ccn1 [Compound 12e, N-(4-(4-Morpholino-7,8-dihydro-6,6-dioxide-5H-thiopyrano[4,3-d]pyrimidin-2-yl)phenyl)-4-(4-chloro-phenyl) pyridinecarboxamide]",melting point,,266.8 to 268.8 °C
"O=C(Nc1ccc(-c2nc3c(c(N4CCOCC4)n2)CS(=O)(=O)CC3)cc1)c1cc(-c2ccc(F)cc2)ccn1 [Compound 12f, N-(4-(4-Morpholino-7,8-dihydro-6,6-dioxide-5H-thiopyrano[4,3-d]pyrimidin-2-yl)phenyl)-4-(4-fluoro-phenyl) pyridincarboxamide]",melting point,,> 300 °C
"Cc1ccc(-c2ccnc(C(=O)Nc3ccc(-c4nc5c(c(N6CCOCC6)n4)CS(=O)(=O)CC5)cc3)c2)cc1 [Compound 12g, N-(4-(4-Morpholino-7,8-dihydro-6,6-dioxide-5H-thiopyrano[4,3-d]pyrimidin-2-yl)phenyl)-4-(4-methylphenyl) pyridinecarboxamide]",IC50,[1]; [4],14.51 ± 0.1 µM
same,melting point,,290.2 to 293.1 °C
same,IC50,"[2]; Homo sapiens, Table 1",64.71 ± 0.17 µM
same,IC50,[3]; [5],28.9 ± 1.29 µM
"COc1ccc(-c2ccnc(C(=O)Nc3ccc(-c4nc5c(c(N6CCOCC6)n4)CS(=O)(=O)CC5)cc3)c2)cc1 [Compound 12i, N-(4-(4-Morpholino-7,8-dihydro-6,6-dioxide-5H-thiopyrano[4,3-d]pyrimidin-2-yl)phenyl)-4-(4-methoxy-phenyl) pyridinecarboxamide]",melting point,,289 to 292.1 °C
COc1ccc(-c2cc(C(=O)Nc3ccc(-c4nc5c(c(N6CCOCC6)n4)CSCC5)cc3)ncn2)cc1 [Compound 13b],IC50,[1]; [6],> 100 µM
same,melting point,,210 to 212.7 °C
same,IC50,"[2]; Homo sapiens, Table 2",> 100 µM
same,IC50,[3]; [7],> 100 µM
O=C(Nc1ccc(-c2nc3c(c(N4CCOCC4)n2)CSCC3)cc1)c1cc(-c2ccc(C(F)(F)F)cc2)ncn1 [Compound 13c],IC50,[1]; [6],> 100 µM
same,melting point,,244.2 to 245.8 °C
same,IC50,"[2]; Homo sapiens, Table 2",> 100 µM
same,IC50,[3]; [7],> 100 µM
O=C(Nc1ccc(-c2nc3c(c(N4CCOCC4)n2)CSCC3)cc1)c1cc(-c2ccc(F)cc2)ncn1 [Compound 13d],IC50,[1]; [6],> 100 µM
same,melting point,,237 to 239.3 °C
same,IC50,"[2]; Homo sapiens, Table 2",> 100 µM
same,IC50,[3]; [7],> 100 µM
O=C(Nc1ccc(-c2nc3c(c(N4CCOCC4)n2)CSCC3)cc1)c1cc(-c2ccc(Br)cc2)ncn1 [Compound 13e],IC50,[1]; [6],> 100 µM
same,melting point,,251.8 to 255 °C
same,IC50,"[2]; Homo sapiens, Table 2",> 100 µM
same,IC50,[3]; [7],> 100 µM
O=C(Nc1ccc(-c2nc3c(c(N4CCOCC4)n2)CSCC3)cc1)c1cc(-c2ccc(Cl)cc2)ncn1 [Compound 13f],IC50,[1]; [6],> 100 µM
same,melting point,,281.8 to 285 °C
same,IC50,"[2]; Homo sapiens, Table 2",> 100 µM
same,IC50,[3]; [7],> 100 µM
COc1ccc(-c2cc(C(=O)Nc3ccc(-c4nc5c(c(N6CCOCC6)n4)CS(=O)(=O)CC5)cc3)ncn2)cc1 [Compound 14b],IC50,[1]; [6],> 100 µM
same,melting point,,277 to 279.5 °C
same,IC50,"[2]; Homo sapiens, Table 2",> 100 µM
same,IC50,[3]; [7],89.6 ± 0.91 µM
O=C(Nc1ccc(-c2nc3c(c(N4CCOCC4)n2)CS(=O)(=O)CC3)cc1)c1cc(-c2ccc(C(F)(F)F)cc2)ncn1 [Compound 14c],IC50,[1]; [6],> 100 µM
same,melting point,,287.1 to 289.2 °C
same,IC50,"[2]; Homo sapiens, Table 2",> 100 µM
same,IC50,[3]; [7],> 100 µM
O=C(Nc1ccc(-c2nc3c(c(N4CCOCC4)n2)CS(=O)(=O)CC3)cc1)c1cc(-c2ccc(F)cc2)ncn1 [Compound 14d],IC50,[1]; [6],> 100 µM
same,melting point,,> 300 °C
same,IC50,"[2]; Homo sapiens, Table 2",> 100 µM
same,IC50,[3]; [7],> 100 µM
"CS(=O)(=O)N1CCN(Cc2cc3nc(-c4cccc5[nH]ncc45)nc(N4CCOCC4)c3s2)CC1 [GDC-0941, reference compound]",IC50,[1]; [4],6.99 ± 0.21 µM
same,IC50,"[2]; Homo sapiens, Table 1",0.2 ± 0.08 µM
same,IC50,[3]; [5],0.07 ± 0.03 µM
"N-(4-(4-Morpholino-7,8-dihydro-5H-thiopyrano[4,3-d]pyrimidin-2-yl)phenyl)-6-(p-tolyl)pyrimidine-4-formamide [Compound 13a]",IC50,"[1]; 72 h, Table 2",> 100 µM
same,IC50,[2]; Table 2,> 100 µM
same,IC50,"[3]; 72 h, Table 2",> 100 µM
"N-(4-(4-Morpholino-7,8-dihydro-5H-thiopyrano[4,3-d]pyrimidin-2-yl)phenyl)-6-phenylpyridine-4-carboxamide [Compound 13g]",IC50,"[1]; 72 h, Table 2",> 100 µM
same,IC50,[2]; Table 2,> 100 µM
same,IC50,"[3]; 72 h, Table 2",> 100 µM
